According to patent US6153405A, “Lantibiotic mutants and chimeras of enhanced stability and activity, leader sequences therefor, genes encoding the same, and methods of producing and using the same” (The University of Maryland, priority 1998, dated 2000):
Read-outs that look alike come from different tables or passages of the source. *1 amine or outer side, *2 acyl side, *3 side chain or, on linkers, in order; H or OH if unused. Where no end group is shown, it is not given here. Suc = O=C(CCC(=O)[*:2])[*:1]

What was measured:
[1] = tested on: Bacillus cereus spores and/or vegetative cells; details: cited from earlier work
[2] = tested on: B. cereus T spores; test: inhibition zone (halo) assay; format: cell-based, Bacillus cereus; details: HPLC fractions spotted on agar, sprayed with B. cereus T spores
Procedure: Biological activity was measured using an inhibition zone (halo) assay (ref. 21 and U.S. application Ser. No. 07/981,525 now U.S. Pat. No. 5,516,682) and a liquid culture assay (26). HPLC fractions were tested for activity by spotting 15 μL onto an agar plate (modified Medium A), incubating at 37° C. for 15 min., spraying with B. cereus T spores and incubating at 37° C. for 16 hr. Positive inhibition is defined as and was determined by a clear zone containing spores that were inhibited during outgrowth surrounded by an opaque lawn of cells derived from the spores that had become vegetative.

[3] = tested on: B. cereus T spores; test: liquid culture assay of spore outgrowth; format: cell-based, Bacillus cereus; details: for inhibition of spore outgrowth (inhibitory concentration): B. cereus T spores, 90 min incubation
Procedure: In the liquid culture assay, various concentrations of peptide were added to a suspension of B. cereus T spores in modified medium A and incubated in a rotating drum shaker at 30° C. for 90 min. The inhibitory effects were evaluated using phase contrast microscopy and a Klett-Summerson calorimeter. After incubation, cells were viewed by phase-contrast microscopy to determine their stage of outgrowth. Those cells in early stages of outgrowth (phase-dark and swollen, but only slightly elongated) were considered inhibited. Those cells that were fully elongated and/or divided were considered to be not inhibited. The inhibitory concentration is the concentration of peptide which arrests a majority of the population of spores at the stage of early outgrowth after the 90-min incubation period. Further, spore germination and outgrowth are accompanied by known changes in the optical density at 650 nm. Thus, the stage of outgrowth can be monitored and the inhibitory concentration can be confirmed using a Klett-Summerson calorimeter. Definitive determinations of the inhibitory concentration of peptide advantageously employ both phase-contrast microscopy and measurement of the optical density at 650 nm.

[4] = tested on: B. cereus vegetative cells; test: liquid assay of vegetative cells (lysis by turbidity); format: cell-based, Bacillus cereus; details: for inhibition of vegetative cells (inhibitory concentration): amount of peptide required to reduce turbidity by 50%
Procedure: The activity of the chimeric Nis1-11 -Sub12-32 peptide towards inhibiting B. cereus vegetative cells was also determined. Heat-shocked B. cereus T spores (150 micrograms) were added to 1% tryptone (Difco)-0.1 M Tris-phosphate buffer (2 ml) at pH 6.8. The mixture was incubated for 2 hours at 37° C. in a rotating drum shaker, whereupon all of the spores were in the vegetative state. The chimeric peptide was then added, and incubation was continued for one additional hour. Cell lysis was monitored by turbity (measured in Klett units), and the integrity of the cell was determined by phase-contrast microscopy. Relative inhibitory effectiveness was measured as the amount of inhibitory peptide required to reduce the turbity by 50%.

[5] = stability of dehydro residues in aqueous solution by 1H NMR; format: physicochemical; details: D2O, pH 6.0, dark, room temperature
Procedure: Samples for ^1 H NMR spectral analysis were dissolved in deuterated water (99.96 atom % D, Aldrich Chemical Co.), lyophilized (repeated twice) to exchange protons and dissolved in D2 O to a final concentration of 2-3 mg/mL. ^1 H NMR spectra were obtained using a Bruker AMX-500 spectrometer interfaced to an Aspect 3000 computer. Spectra were obtained at a constant temperature of 295 K, using selective solvent suppression. Data were processed using UXNMR software. Mass spectral analysis was performed by PeptidoGenic Research & Co. (Livermore, Calif.) on a Sciex API I Electrospray Mass Spectrometer which has an analysis range of over 200,000 Da with +/-0.01% accuracy, on 5 μL samples at a concentration of about 5 pmol/μL. The reported masses are those calculated as the most probable values based on the different m/z forms.
A 3 mg amount of the Nis1-11 -Sub12-32 chimera (consisting of a mixture of the Early Peak and Late Peak as defined in FIGS. 4 and 5) was dissolved in D2 O at a pH of 6.0, placed in an NMR tube (which was then closed), and incubated in aqueous solution in the dark at room temperature for 2.5 months.

[6] = inferred through nisin from previous measurements (21, 26, 31)

## NL --Nis1-34: complete nisin prepeptide: nisin leader region and nisin structural region (MSTKDFNLDLVSVSKKDSGASPRITSISLCTPGCKTGALMGCNMKTATCHCSIHVSK; full-length; UniProt P13068 1-57, looked up)
[1]; prepeptide expressed in L. lactis 11454, ref. c (17)
  Secreted peptide is active: yes

## Nis1-11 -Sub12-32: chimeric lantibiotic: nisin residues 1-11 and subtilin residues 12-32 (SEQ ID NO:5), processed by B. subtilis 168
[2]
  antimicrobial activity in halo assay: possessed antimicrobial activity
[2]; listed as Early Peak
  antimicrobial activity in halo assay: antimicrobial activity is associated mainly with the Early Peak
[3]
  activity against spore outgrowth: active
  inhibition of spore outgrowth (inhibitory concentration): about 0.2 μg/ml
[3]; [6]
  activity relative to E4I-subtilin (fold more active): about 2 fold
  activity relative to natural subtilin (times more active): 6-8 times
[4]
  activity against vegetative growth: active
  inhibition of vegetative cells (inhibitory concentration): about 2 μg/ml
[5]; 72-day incubation, mixture of Early Peak and Late Peak
  change in the NMR resonances of the dehydro residues: no significant change
[5]; NMR at 0, 34 and 72 days
  half-life of the Dha5 residue: so long that it cannot be estimated from the 72-day time-point

## SL --S1-32: prepeptide: subtilin leader sequence and subtilin structural region (MSKFDDFDLDVVKVSKQDSKITPQWKSESLCTPGCVTGALQTCFLQTLTCNCKISK; full-length; UniProt P10946 1-56, looked up)
[1]; prepeptide expressed in B. subtilis 168, ref. b (21)
  Secreted peptide is active: yes
[1]; prepeptide expressed in B. subtilis 6633
  Secreted peptide is active: yes

## nisin [reference compound]
[3]
  inhibition of spore outgrowth (inhibitory concentration): about 0.2 μg/ml
[4]
  inhibition of vegetative cells (inhibitory concentration): about 2 μg/ml

## succinylated subtilin: subtilin succinylated at its N-terminus, accumulates in late stationary phase of B. subtilis 6633 (Suc-WKSESLCTPGCVTGALQTCFLQTLTCNCKISK; cysteine pairing not given here; also: lantibiotic (post-translational modifications not placed); UniProt P10946 25-56, looked up)
[1]; succinylated at N-terminus
  activity compared with normal unsuccinylated subtilin: significantly less active
